Structures are written as SMILES. Structures can show the parent of a compound that is named as a salt.

For assay [1], the target named is T1, MARK4 (Homo sapiens, UniProt Q96L34).
T1 construct: made in house
T1 sequence (Q96L34 1-752): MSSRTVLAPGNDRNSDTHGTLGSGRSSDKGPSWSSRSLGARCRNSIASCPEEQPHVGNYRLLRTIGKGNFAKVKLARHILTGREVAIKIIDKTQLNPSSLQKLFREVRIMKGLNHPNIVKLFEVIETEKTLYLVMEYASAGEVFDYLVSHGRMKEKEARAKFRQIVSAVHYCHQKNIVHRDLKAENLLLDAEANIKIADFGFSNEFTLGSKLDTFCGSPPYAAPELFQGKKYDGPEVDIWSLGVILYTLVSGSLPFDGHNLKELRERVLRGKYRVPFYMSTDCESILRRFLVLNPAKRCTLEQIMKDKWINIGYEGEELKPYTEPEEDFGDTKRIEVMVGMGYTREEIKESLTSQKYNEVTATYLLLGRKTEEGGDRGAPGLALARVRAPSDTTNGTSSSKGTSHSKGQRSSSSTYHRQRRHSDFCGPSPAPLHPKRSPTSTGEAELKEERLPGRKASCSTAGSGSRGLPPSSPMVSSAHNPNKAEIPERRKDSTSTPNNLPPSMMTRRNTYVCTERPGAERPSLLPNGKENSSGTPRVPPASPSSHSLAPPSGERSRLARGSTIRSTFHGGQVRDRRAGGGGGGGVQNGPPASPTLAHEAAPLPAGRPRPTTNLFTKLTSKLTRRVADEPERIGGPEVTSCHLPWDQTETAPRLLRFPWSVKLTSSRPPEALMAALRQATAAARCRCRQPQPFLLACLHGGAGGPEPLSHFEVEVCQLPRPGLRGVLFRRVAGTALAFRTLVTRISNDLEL
Briefly: Isothermal titration calorimetry. It counts as binding. The note with it: ITC, 25 °C, 20 µM MARK4; for Kd: 100 µM DP or 200 µM RT in syringe. How it is done:
Isothermal titration calorimetry (ITC) measurements were carried out on a VP-ITC microcalorimeter (MicroCal, Inc, GE, MicroCal, Northampton, MA, USA) at 25 °C. All the solutions were degassed in thermovac for 20 min to remove air bubbles. For sample preparation, recombinant MARK4 was extensively dialyzed in 20 mM Tris buffer, pH 8.5. […] We used standard protocol to run the ITC in which the first injection was a false injection of 2 μL followed by injections of 10 μL of the ligands at a span of 260 s intervals into the sample cell. The stirring rate was maintained at 320 rpm. The obtained titration data were analyzed by Origin 8.0 software to estimate thermodynamic parameters such as stoichiometry of binding (n), enthalpy change (ΔH), an association constant (Ka).

Assay [2] addresses T1, MARK4. Briefly: Fluorescence quenching binding study of MARK4 with DP and RT. To be noted: for Kq (quenching rate constant): Kq=Ksv/τ0, τ0 2.7 × 10^−9 s; for Ksv (Stern−Volmer constant): MARK4 4 μM; for n (number of the binding site) / Kd: modified Stern−Volmer plot; for ΔG (change in Gibbs free energy): van't Hoff equation; for mode of fluorescence quenching of the MARK4 complex: from temperature dependency of Ksv and from Kq; for ΔH (change in enthalpy) / ΔS (change in entropy): van't Hoff plot over 293, 296, 298 K, same value printed in each temperature row; for Kd: K (binding constant). An excerpt:
The observed fluorescence intensities were corrected for the inner filter effect. Obtained data were fitted into the Stern−Volmer and modified Stern−Volmer equations to estimate Stern-Volmer constant (Ksv), binding constant (Ka), and the number of binding sites (n).
Equation (1) (van’t Hoff equation) was used to find the thermodynamic parameters such as changes in enthalpy, entropy, and Gibbs free energy associated with the reaction. (1) ΔG=−RTLnK=ΔH−TΔS
K is the obtained binding constant, ΔH is the associated enthalpy change and ΔG is the associated free Gibbs energy change. ΔS denotes the associated entropy change with reaction, and R is the universal gas constant.
The slope of the van’t Hoff plot (LnK on Y-axis against 1/T on the X-axis) gives the value of −ΔH/R, and the intercept giving the value of ΔS/R.
The intrinsic fluorescence of protein due to tryptophan is often used to get an insight into the ligand binding to the protein because binding often leads to changes in the surrounding environment around tryptophan residues which corresponds to observed changes in fluorescence. The recombinant MARK4 was expressed and purified to carry out all binding studies.
Ksv was obtained from the slope of this plot at a fixed intercept after linear regression using the Stern−Volmer equation (Equation (2)). (2) F0/F=1+Ksv[C]
The SV plot of combined quenching (both static and dynamic) is characteristically an upward curvature while the linear Stern−Volmer plot depicts that only one mode of quenching was operative. […] The linear plot and upward curvature are not enough to define the quenching type. […] Equation (3) uses Ksv and τo (average integral fluorescence lifetime of tryptophan) (2.7 × 10^−9 s) to find biomolecular quenching rate constant (Kq) (3) Kq=Ksv/τ0
To get insights into other binding parameters, Equation (4) was used. This equation gives binding constant (K) and the number of binding sites (n). (4) logF0−F/F=logK+nlog[C]

Assay [3] addresses T1, MARK4. The assay is described as follows: ATPase inhibition assay (malachite green, BIOMOL reagent). The note with it: MARK4 4 μM, ligand 0–20 μM, pre-incubated 60 min, 200 μM ATP, 25 °C; AAT Bioquest calculator. It counts as biochemical.
Description: The activity of MARK4 was measured using standard malachite green (BIOMOL® reagent, Enzo Life Sciences) microtitre-plate assay using previously-published protocols [17, 40].
Initially, MARK4 (4 μM) was pre-incubated with increasing concentrations of ligands at room temperature for 60 min in a 96-well plate. Subsequently, 200 μM of freshly-prepared ATP was mixed to the reaction mixture and incubated for 15–20 min at 25 °C. At the end of this time, BIOMOL® reagent was added and kept for 15–20 min. The intensity of color was spectrophotometrically measured at 620 nm.

Consider `COc1cc2c(cc1OC)C(=O)C(CC1CCN(Cc3ccccc3)CC1)C2` (stereo not drawn) [DP, Donepezil], for which, on MARK4 [1], the “∆S1” value was 51.2 cal/mol/deg, the “∆S2” value is given as -207 cal/mol/deg, the “∆S3” value was determined as 368 cal/mol/deg and the “∆S4” value was -327 cal/mol/deg. Further, at MARK4 [2] (293 K), the TΔS was -126.79 kcal/mol, the “Kq (quenching rate constant)” value was 6.85 10^14 M^−1 s^−1, the “n (number of the binding site)” value is recorded as 1.66 and the “ΔG (change in Gibbs free energy)” value was -10.70 kcal/mol. The “Ksv (Stern−Volmer constant)” value on MARK4 [2] (293 K, DP 0−200 nM) is listed as 18.5 10^5 M^−1. In addition, on MARK4 [2] (296 K), the TΔS is -128.09 kcal/mol, the “Kq (quenching rate constant)” value is 5.81 10^14 M^−1 s^−1, the “n (number of the binding site)” value is on record as 1.311 and the “ΔG (change in Gibbs free energy)” value was -9.40 kcal/mol. The “Ksv (Stern−Volmer constant)” value on MARK4 [2] (296 K, DP 0−200 nM) is 15.7 10^5 M^−1. In addition, at MARK4 [2] (298 K), the TΔS was -128.95 kcal/mol, the “Kq (quenching rate constant)” value was 5.03 10^14 M^−1 s^−1 and the “n (number of the binding site)” value came out at 0.1. Also, the “Ksv (Stern−Volmer constant)” value on MARK4 [2] (298 K, DP 0−200 nM) is 13.6 10^5 M^−1. Besides, on MARK4 [2], the “mode of fluorescence quenching of the MARK4 complex” value was “static mode”, the “ΔH (change in enthalpy)” value is -137.5 kcal/mol and the “ΔS (change in entropy)” value is −432.749 cal mol^−1K^−1.

With `CCN(C)C(=O)Oc1cccc([C@H](C)N(C)C)c1` [RT, rivastigmine tartrate], on MARK4 [1], the “∆S1” value was 31.1 cal/mol/deg and the “∆S2” value is given as -700 cal/mol/deg. Further, the Kd at MARK4 [1] (read-out: Ka1 (association constant) (converted)) is 9.8 µM. Moreover, the Kd at MARK4 [1] (read-out: Ka2 (association constant) (converted)) was 8.55 µM. For the same compound, the Kd at MARK4 [1] (read-out: Ka3 (association constant) (converted)) was 5 µM. Moreover, on MARK4 [2] (293 K), the TΔS is -133.48 kcal/mol, the “Kq (quenching rate constant)” value is 1.25 10^13 M^−1 s^−1, the “n (number of the binding site)” value came to 1.66 and the “ΔG (change in Gibbs free energy)” value is -10.74 kcal/mol. The same compound had a Kd at MARK4 [2] (293 K) of 0.00952 µM. Moreover, the “Ksv (Stern−Volmer constant)” value on MARK4 [2] (293 K, RT 0−9 µM) is reported as 3.4 10^4 M^−1. On MARK4 [2] (296 K), the TΔS is -135.76 kcal/mol, the “Kq (quenching rate constant)” value is listed as 1.44 10^13 M^−1 s^−1, the “n (number of the binding site)” value is 1.311 and the “ΔG (change in Gibbs free energy)” value was -8.46 kcal/mol. On MARK4 [2] (296 K), the Kd was 0.625 µM. Further, at MARK4 [2] (296 K, RT 0−9 µM), the “Ksv (Stern−Volmer constant)” value was 3.9 10^4 M^−1. Also, on MARK4 [2] (298 K), the TΔS is -138.04 kcal/mol, the “Kq (quenching rate constant)” value is on record as 2.14 10^13 M^−1 s^−1, the “n (number of the binding site)” value is 0.94 and the “ΔG (change in Gibbs free energy)” value is -6.18 kcal/mol. The Kd on MARK4 [2] (298 K) was 50 µM. In addition, the “Ksv (Stern−Volmer constant)” value at MARK4 [2] (298 K, RT 0−9 µM) is reported as 5.8 10^4 M^−1. In addition, on MARK4 [2], the “mode of fluorescence quenching of the MARK4 complex” value was “combination of static and dynamic modes of quenching”; the “ΔH (change in enthalpy)” value was -144.23 kcal/mol; the “ΔS (change in entropy)” value is recorded as −455.78 cal mol^−1K^−1. Besides, the IC50 on MARK4 [3] was 6.74 µM.

Values taken from article PMC7277793 (Biomolecules, 2020).
